Tests used:
[1] = target: T1, LRRK2 WT (Homo sapiens, UniProt Q5S007); assay: Enzymatic activity inhibition against LRRK2 WT (ADP-Glo kinase assay, LRRKtide substrate); type: biochemical; parameters: purchased SignalChem Biotech, Inc. L10-11G-10; conditions: recombinant LRRK2 WT 36 nM, ATP, 1 h at rt, average Ki
Protocol: Example B. Primary Assays Used to Determine Potency of the LRRK2 Inhibition
Assay for Determining Enzymatic Activity Inhibition Against LRRK2 WT.
Compound activity was determined using recombinant LRRK2 WT protein (SignalChem Biotech, Inc., Cat #L10-11G-10) and LRRKtide substrate (SignalChem Biotech, Inc., Cat #L10-58) in an in vitro enzymatic reaction. The enzymatic reaction was carried out in assay buffer (40 mM TRIS-HCl pH 7.4, 20 mM MgCl2, 0.05 mM DTT, 0.1 mg/mL BSA). The compounds were dispensed into a 384 well Diamond Well Plate (Axigen, Cat #P-384-120SQ-C-S) using the Biomek FX liquid handling system at 80× solutions of compounds in DMSO. The 2× Protein-Substrate mix (final concentration 36 nM of LRRK2 WT and 0.8 μg/μL of LRRKtide) was prepared in the 1× Assay buffer and 4 μL of mixture per well was added into the 384-well white Reaction plate with NBS (Corning, Cat #CLS4513). The 4 μL of LRRKtide substrate w/o LRRK2 WT in the 1× buffer was used for a negative control. Plates were centrifuged for 1 min at 200 g. Next the compounds were added to Reaction plate using Biomek station via following steps: 1 μL of 80× compounds (in DMSO) were mixed thoroughly with 39 μL of 2×10 μM ATP in Assay Buffer, then 4 μL of this mixture was added to Reaction plate with 4 μL of Protein-Substrate mix. Plates were centrifuged for 1 min at 200 g and incubated for 1 hour at rt. Then, 4 μL per well of ADP-Glo reagent (Promega, ADP-Glo™ Kinase Assay, Cat #V9102) was added. Plates were incubated for 30 minutes at rt. Then, 8 μL per well of Kinase detection reagent (Promega, ADP-Glo™ Kinase Assay, Cat #V9102) was added and the luminescence signal was measured with a microplate reader. The % inhibition was then used to calculate the Ki values. The average Ki values are shown in Table B, wherein “A” corresponds to Ki<10.0 nM, “B” corresponds to 10.0 nM K Ki<20.0 nM, “C” 20.0 nM K Ki<50.0 nM, “D” corresponds to 50.0 nM K Ki<100.0 nM and “E” corresponds to Ki>100.0 nM.
Target sequence in this assay (Q5S007 970-2527 limits assumed): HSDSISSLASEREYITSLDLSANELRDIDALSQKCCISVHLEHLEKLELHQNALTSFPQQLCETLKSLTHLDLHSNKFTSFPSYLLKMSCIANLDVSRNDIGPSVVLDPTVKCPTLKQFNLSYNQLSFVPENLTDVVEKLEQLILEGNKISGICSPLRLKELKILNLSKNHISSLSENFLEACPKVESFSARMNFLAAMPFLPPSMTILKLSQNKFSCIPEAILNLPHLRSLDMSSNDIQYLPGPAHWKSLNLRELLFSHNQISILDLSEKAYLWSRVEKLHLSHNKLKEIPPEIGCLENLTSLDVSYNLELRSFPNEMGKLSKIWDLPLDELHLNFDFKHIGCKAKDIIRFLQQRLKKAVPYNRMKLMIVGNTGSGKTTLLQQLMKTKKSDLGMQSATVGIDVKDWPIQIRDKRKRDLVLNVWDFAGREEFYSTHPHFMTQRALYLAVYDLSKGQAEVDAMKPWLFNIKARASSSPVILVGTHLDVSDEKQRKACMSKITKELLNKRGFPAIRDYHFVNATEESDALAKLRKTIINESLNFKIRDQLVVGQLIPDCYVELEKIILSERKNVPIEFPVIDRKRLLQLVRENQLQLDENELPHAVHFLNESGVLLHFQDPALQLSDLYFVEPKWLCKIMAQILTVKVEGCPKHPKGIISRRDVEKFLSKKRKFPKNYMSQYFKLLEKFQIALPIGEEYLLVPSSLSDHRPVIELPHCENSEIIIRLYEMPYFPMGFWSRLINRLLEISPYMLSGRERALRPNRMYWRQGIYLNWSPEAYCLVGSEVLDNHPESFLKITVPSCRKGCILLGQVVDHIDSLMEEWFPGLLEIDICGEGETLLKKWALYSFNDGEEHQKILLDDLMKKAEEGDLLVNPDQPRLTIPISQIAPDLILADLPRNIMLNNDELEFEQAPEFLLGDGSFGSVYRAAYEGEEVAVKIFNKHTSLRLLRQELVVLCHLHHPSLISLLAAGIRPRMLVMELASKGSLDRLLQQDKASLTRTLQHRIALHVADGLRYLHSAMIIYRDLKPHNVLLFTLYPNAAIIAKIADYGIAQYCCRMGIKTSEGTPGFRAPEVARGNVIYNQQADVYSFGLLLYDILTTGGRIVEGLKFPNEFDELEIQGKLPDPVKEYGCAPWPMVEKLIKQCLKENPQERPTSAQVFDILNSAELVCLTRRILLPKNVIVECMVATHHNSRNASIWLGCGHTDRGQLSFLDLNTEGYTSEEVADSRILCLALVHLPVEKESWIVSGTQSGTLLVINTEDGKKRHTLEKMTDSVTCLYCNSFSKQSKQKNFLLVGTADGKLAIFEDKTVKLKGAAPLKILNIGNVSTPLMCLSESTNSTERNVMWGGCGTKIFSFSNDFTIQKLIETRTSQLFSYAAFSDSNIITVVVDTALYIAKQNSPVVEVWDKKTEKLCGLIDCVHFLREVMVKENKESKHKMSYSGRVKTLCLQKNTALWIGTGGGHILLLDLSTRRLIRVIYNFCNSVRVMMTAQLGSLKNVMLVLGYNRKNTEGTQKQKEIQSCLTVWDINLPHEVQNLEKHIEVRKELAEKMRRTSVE

[2] = target: T2, LRRK2[G2019S] (Homo sapiens, UniProt Q5S007, G2019S); assay: Enzymatic activity inhibition against LRRK2[G2019S] (ADP-Glo kinase assay, LRRKtide substrate); type: biochemical; parameters: purchased SignalChem Biotech, Inc. L10-12GG-10; conditions: recombinant LRRK2[G2019S] 36 nM, ATP, 1 h at rt, average Ki
Protocol: Example A. Primary Assays Used to Determine Potency of the LRRK2 Inhibition
Assay for Determining Enzymatic Activity Inhibition Against LRRK2[G2019S].
Compound activity was determined using recombinant LRRK2[G2019S] protein (SignalChem Biotech, Inc., Cat #L10-12GG-10) and LRRKtide substrate (SignalChem Biotech, Inc., Cat #L10-58) in an in vitro enzymatic reaction. The enzymatic reaction was carried out in assay buffer (40 mM TRIS-HCl pH 7.4, 20 mM MgCl2, 0.05 mM DTT, 0.1 mg/mL BSA). The compounds were dispensed into a 384 well Diamond Well Plate (Axigen, Cat #P-384-120SQ-C-S) using the Biomek FX liquid handling system at the 80× solutions of compounds in DMSO. The 2× Protein-Substrate mix (final concentration 36 nM of LRRK2[G2019S] and 0.8 μg/μL of LRRKtide) was prepared in 1× Assay buffer and 4 μL of mixture per well was added into the 384-well white Reaction plate with NBS (Corning, Cat #CLS4513). The 4 μL of LRRKtide substrate w/o LRRK2[G2019S] in the 1× buffer was used for a negative control. Plates were centrifuged for 1 min at 200 g. Next the compounds were added to the reaction plate using Biomek station via following steps: 1 μL of 80× compounds (in DMSO) were mixed thoroughly with 39 μL of 2×10 μM ATP in Assay Buffer, then 4 μL of this mixture was added to Reaction plate with 4 μL of Protein-Substrate mix. Plates were centrifuged for 1 min at 200 g and incubated for 1 h at rt. Then, 4 μL per well of ADP-Glo reagent (Promega, ADP-Glo™ Kinase Assay, Cat #V9102) was added. Plates were incubated for 30 min at rt. Then, 8 μL per well of Kinase detection reagent (Promega, ADP-Glo™ Kinase Assay, Cat #V9102) was added and the luminescence signal was measured with a microplate reader. The luminescence signal was detected with CLARIOstar Plus (BMG LABTECH) microplate reader. The % inhibition was then used to calculate the Ki values. The average Ki values are shown in Table A, wherein “A” corresponds to Ki<5.0 nM, “B” corresponds to 5.0 nM≤Ki<10.0 nM, “C” 10.0 nM≤Ki<50.0 nM, “D” corresponds to 50.0 nM≤Ki<100.0 nM and “E” corresponds to Ki>100.0 nM.
Target sequence in this assay (Q5S007 970-2527 G2019S limits assumed): as the sequence (Q5S007 970-2527 limits assumed) above, with G1050S counted along it

[3] = target: T2, LRRK2[G2019S]; assay: Cell-based NanoBRET target engagement assay in HEK293 cells transfected with LRRK2 (G2019S)-NanoLuc fusion vector; parameters: expressed in transfected cells; host or cells: HEK293 (ATCC); conditions: compound treatment 1 h
Protocol: (§1) Example C. Cell-Based NanoBRET Target Engagement Assay in 11EK293 Cells Transiently Transfected with LRRK2 WT- or LRRK2 (G2019S)-Nano Luc Fusion Vector
(§2) H1EK293 (ATCC) cells were transfected with […] LRRK2 WT or LRRK2 (G2019S) and 9 μg transfection carrier DNA. The transfected cells were treated with the compounds (starting at 1 μM, 10-dose with 3-fold dilution) and reference compounds CEP-701 or Staurosporine (starting at 1 μM, 10-dose with 3-fold dilution); compound treatment time: 1 h. LRRK2 WT and LRRK2 (G2019S) target engagement was measured by NanoBRET assay. Curve fits were performed only when % NanoBret signal at the highest concentration of compounds was less than […]. Assay format: 384-well format, 4000 cells/well. The IC50 values are shown in Table C, wherein “A” corresponds to IC50≤50.0 nM, “B” corresponds to 50.0 nM≤IC50<100.0 nM, “C” corresponds to 100.0 nM≤IC50.
Target sequence in this assay (Q5S007 whole entry G2019S): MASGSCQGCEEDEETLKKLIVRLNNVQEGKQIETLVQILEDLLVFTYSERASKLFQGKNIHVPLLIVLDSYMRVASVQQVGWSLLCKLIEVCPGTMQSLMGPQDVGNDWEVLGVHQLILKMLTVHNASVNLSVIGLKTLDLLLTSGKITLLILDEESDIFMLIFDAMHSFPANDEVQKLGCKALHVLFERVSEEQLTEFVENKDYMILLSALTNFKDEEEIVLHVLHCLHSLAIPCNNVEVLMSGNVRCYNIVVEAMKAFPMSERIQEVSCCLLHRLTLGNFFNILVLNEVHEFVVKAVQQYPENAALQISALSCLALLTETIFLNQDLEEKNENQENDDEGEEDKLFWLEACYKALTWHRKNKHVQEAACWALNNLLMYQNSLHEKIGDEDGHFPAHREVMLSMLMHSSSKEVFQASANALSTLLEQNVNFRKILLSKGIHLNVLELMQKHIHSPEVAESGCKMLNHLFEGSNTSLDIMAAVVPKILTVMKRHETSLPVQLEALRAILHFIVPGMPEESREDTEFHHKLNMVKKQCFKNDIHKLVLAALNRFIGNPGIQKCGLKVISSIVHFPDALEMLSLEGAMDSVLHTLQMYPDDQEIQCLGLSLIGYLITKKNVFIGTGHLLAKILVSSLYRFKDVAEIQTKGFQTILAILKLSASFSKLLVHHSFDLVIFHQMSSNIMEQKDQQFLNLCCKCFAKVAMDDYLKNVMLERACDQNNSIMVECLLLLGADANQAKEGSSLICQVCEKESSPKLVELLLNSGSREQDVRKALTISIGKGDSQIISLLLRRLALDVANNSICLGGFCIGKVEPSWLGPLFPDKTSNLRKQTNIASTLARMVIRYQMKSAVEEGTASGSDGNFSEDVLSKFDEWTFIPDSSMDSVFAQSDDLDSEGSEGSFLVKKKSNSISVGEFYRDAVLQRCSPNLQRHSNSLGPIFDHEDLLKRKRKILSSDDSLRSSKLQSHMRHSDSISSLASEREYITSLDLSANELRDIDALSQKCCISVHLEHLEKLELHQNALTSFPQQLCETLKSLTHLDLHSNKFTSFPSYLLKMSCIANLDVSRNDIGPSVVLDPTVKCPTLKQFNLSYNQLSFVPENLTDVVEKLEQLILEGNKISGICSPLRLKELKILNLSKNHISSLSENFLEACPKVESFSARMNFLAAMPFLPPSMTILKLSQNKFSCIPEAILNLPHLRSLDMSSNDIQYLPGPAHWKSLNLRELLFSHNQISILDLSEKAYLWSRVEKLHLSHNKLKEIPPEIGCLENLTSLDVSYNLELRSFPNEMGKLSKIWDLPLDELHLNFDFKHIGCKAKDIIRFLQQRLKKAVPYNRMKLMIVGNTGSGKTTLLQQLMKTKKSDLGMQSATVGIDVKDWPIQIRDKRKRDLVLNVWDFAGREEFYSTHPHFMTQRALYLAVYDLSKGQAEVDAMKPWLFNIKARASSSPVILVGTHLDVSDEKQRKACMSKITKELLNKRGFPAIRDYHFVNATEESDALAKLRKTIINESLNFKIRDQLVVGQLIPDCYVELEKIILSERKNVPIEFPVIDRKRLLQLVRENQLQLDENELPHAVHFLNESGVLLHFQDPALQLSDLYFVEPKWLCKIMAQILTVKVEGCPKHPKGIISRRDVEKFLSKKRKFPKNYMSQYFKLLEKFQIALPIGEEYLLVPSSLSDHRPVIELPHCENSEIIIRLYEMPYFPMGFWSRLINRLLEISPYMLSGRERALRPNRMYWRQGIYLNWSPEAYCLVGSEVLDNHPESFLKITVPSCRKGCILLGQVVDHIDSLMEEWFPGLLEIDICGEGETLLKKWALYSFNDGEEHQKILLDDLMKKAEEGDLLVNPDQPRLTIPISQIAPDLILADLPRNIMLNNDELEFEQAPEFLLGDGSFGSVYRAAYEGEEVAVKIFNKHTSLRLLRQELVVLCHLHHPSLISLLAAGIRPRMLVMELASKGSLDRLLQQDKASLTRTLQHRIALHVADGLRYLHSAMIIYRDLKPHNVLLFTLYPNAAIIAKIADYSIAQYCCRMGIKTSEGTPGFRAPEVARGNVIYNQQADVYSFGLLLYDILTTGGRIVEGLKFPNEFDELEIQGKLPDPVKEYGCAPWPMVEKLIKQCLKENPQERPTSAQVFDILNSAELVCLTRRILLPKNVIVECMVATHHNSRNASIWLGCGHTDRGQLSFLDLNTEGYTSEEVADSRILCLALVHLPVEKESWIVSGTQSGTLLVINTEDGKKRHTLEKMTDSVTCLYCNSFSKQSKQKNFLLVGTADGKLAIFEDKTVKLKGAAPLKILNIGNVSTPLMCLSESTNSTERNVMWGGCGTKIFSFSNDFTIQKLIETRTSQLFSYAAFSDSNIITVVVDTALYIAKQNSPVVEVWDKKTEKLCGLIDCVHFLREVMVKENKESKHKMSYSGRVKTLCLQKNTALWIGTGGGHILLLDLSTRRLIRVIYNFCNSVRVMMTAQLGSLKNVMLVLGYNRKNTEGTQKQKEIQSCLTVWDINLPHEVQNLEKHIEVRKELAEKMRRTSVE

[4] = target: T1, LRRK2 WT; assay: Cell-based NanoBRET target engagement assay in HEK293 cells transfected with LRRK2 WT-NanoLuc fusion vector; parameters: expressed in transfected cells; host or cells: HEK293 (ATCC); conditions: compound treatment 1 h
Protocol: as §1, §2
Target sequence in this assay (Q5S007 whole entry): as the sequence (Q5S007 whole entry G2019S) above, with S2019G counted along it

| SMILES | Ki [1] [nM] | Ki [2] [nM] | IC50 [3] [nM] | IC50 [4] [nM] |
| --- | --- | --- | --- | --- |
| N#CC1(c2ccc3cnn(-c4cnnc(N5CCCC5)c4)c3c2)CCCC1 [Compound 39, 1-[1-(6-pyrrolidin-1-ylpyridazin-4-yl)indazol-6-yl]cyclopentanecarbonitrile] | 20 to 50 | 50 to 100 | – | – |
| Cc1nnc(-c2n[nH]c3ccc(OC(C)C)cc23)cc1N1CCOCC1 [Compound 10, 4-[6-(5-isopropoxy-1H-indazol-3-yl)-3-methyl-pyridazin-4-yl]morpholine] | ≤ 10 | 10 to 50 | – | – |
| Cn1nc(-c2n[nH]c3ccc(S(C)(=O)=O)cc23)cc(N2CCOCC2)c1=O [Compound 33, 2-methyl-6-(5-methylsulfonyl-1H-indazol-3-yl)-4-morpholino-pyridazin-3-one] | 50 to 100 | > 100 | – | – |
| Cn1nc(-c2n[nH]c3ccc(OC(F)F)cc23)cc(N2CCOCC2)c1=O [Compound 32, 6-[5-(difluoromethoxy)-1H-indazol-3-yl]-2-methyl-4-morpholino-pyridazin-3-one] | > 100 | 50 to 100 | – | – |
| CC(C)Oc1ccc2[nH]nc(-c3cnnc(N4CCCC4)c3)c2c1 [Compound 5, 5-isopropoxy-3-(6-pyrrolidin-1-ylpyridazin-4-yl)-1H-indazole] | 10 to 20 | ≤ 5 | – | – |
| Cn1nc(-c2n[nH]c3ccc(-n4cccc4C#N)cc23)cc(N2CCOCC2)c1=O [Compound 45, 1-[3-(1-methyl-5-morpholino-6-oxo-pyridazin-3-yl)-1H-indazol-5-yl]pyrrole-2-carbonitrile] | ≤ 10 | 10 to 50 | – | – |
| N#CC1(c2ccc3cnn(-c4cnnc(N5CCCC5)c4)c3c2)CC1 [Compound 36, 1-[1-(6-pyrrolidin-1-ylpyridazin-4-yl)indazol-6-yl]cyclopropanecarbonitrile] | 50 to 100 | > 100 | – | – |
| Cn1nc(-c2n[nH]c3ccc(OC(F)(F)F)cc23)cc(N2CCOCC2)c1=O [Compound 22, 2-methyl-4-morpholino-6-[5-(trifluoromethoxy)-1H-indazol-3-yl]pyridazin-3-one] | > 100 | > 100 | – | – |
| Cc1c(OC(C)C)ccc2[nH]nc(-c3cc(N4CCOCC4)c(=O)n(C)n3)c12 [Compound 24, 6-(5-isopropoxy-4-methyl-1H-indazol-3-yl)-2-methyl-4-morpholino-pyridazin-3-one] | > 100 | > 100 | – | – |
| Cn1nc(-n2ncc3ccc(C(C)(C)C#N)cc32)cc(N2CCOCC2)c1=O [Compound 43, 2-methyl-2-[1-(1-methyl-5-morpholino-6-oxo-pyridazin-3-yl)indazol-6-yl]propanenitrile] | 50 to 100 | > 100 | – | – |
| CC(C)Oc1cccc2[nH]nc(-c3cc(N4CCOCC4)c(=O)n(C)n3)c12 [Compound 15, 6-(4-isopropoxy-1H-indazol-3-yl)-2-methyl-4-morpholino-pyridazin-3-one] | > 100 | > 100 | – | – |
| O=S1(=O)CCCC1c1ccc2cnn(-c3cnnc(N4CCCC4)c3)c2c1 (stereo not shown) [Compound 34, 2-[1-(6-pyrrolidin-1-ylpyridazin-4-yl)indazol-6-yl]thiolane 1,1-dioxide] | > 100 | > 100 | – | – |
| CC(C)Oc1ccc2[nH]nc(-c3cnnc(N4CC(O)C4)c3)c2c1 [Compound 1, 1-[5-(5-isopropoxy-1H-indazol-3-yl)pyridazin-3-yl]azetidin-3-ol] | 10 to 20 | 5 to 10 | – | – |
| Cn1nc(-c2n[nH]c3ccc4c(c23)CCCO4)cc(N2CCOCC2)c1=O [Compound 29, 2-methyl-4-morpholino-6-(3,7,8,9-tetrahydropyrano[3,2-e]indazol-1-yl)pyridazin-3-one] | 50 to 100 | > 100 | – | – |
| Cn1nc(-c2n[nH]c3ccc(OC4(C)CC4)cc23)cc(N2CCC(C(C)(C)O)C2)c1=O (stereo not shown) [Compound 85, 4-[3-(1-hydroxy-1-methyl-ethyl)pyrrolidin-1-yl]-2-methyl-6-[5-(1-methylcyclopropoxy)-1H-indazol-3-yl]pyridazin-3-one] | – | – | ≤ 50 | ≤ 50 |
| Cn1nc(-c2n[nH]c3ccc(OC4(C)CC4)cc23)cc(N2CCNC(C(F)(F)F)CC2)c1=O (stereo not shown) [Compound 74, 2-methyl-6-[5-(1-methylcyclopropoxy)-1H-indazol-3-yl]-4-[5-(trifluoromethyl)-1,4-diazepan-1-yl]pyridazin-3-one] | – | – | ≤ 50 | ≤ 50 |
| Cn1nc(-c2n[nH]c3ccc(OC4(C)CC4)cc23)cc(N2CCCOCC2)c1=O [Compound 76, 2-methyl-6-[5-(1-methylcyclopropoxy)-1H-indazol-3-yl]-4-(1,4-oxazepan-4-yl)pyridazin-3-one] | – | – | ≤ 50 | ≤ 50 |
| CC(C)N1CCCN(c2cc(-c3n[nH]c4ccc(OC5(C)CC5)cc34)nn(C)c2=O)CC1 [Compound 96, 4-(4-isopropyl-1,4-diazepan-1-yl)-2-methyl-6-[5-(1-methylcyclopropoxy)-1H-indazol-3-yl]pyridazin-3-one] | – | – | ≤ 50 | ≤ 50 |
| CC1(Oc2ccc3[nH]nc(-c4cc(N5CC(F)C6(CC6)C5)c(=O)n(C5CC5)n4)c3c2)CC1 (stereo not shown) [Compound 59, 2-cyclopropyl-4-(7-fluoro-5-azaspiro[2.4]heptan-5-yl)-6-[5-(1-methylcyclopropoxy)-1H-indazol-3-yl]pyridazin-3-one] | – | – | ≤ 50 | ≤ 50 |
| CN1CCN(c2cc(-c3n[nH]c4ccc(OC5(C)CC5)cc34)nn(C)c2=O)CC(F)(F)C1 [Compound 64, 4-(6,6-difluoro-4-methyl-1,4-diazepan-1-yl)-2-methyl-6-[5-(1-methylcyclopropoxy)-1H-indazol-3-yl]pyridazin-3-one] | – | – | ≤ 50 | 50 to 100 |

Reference: US20250248998A1, “LRRK2 Inhibitors” (Brenig Therapeutics, Inc., priority 2022, published 2025)
